EC50 and Ki data for 21 compounds are collected here from US11919901B2 (Syndax Pharmaceuticals, Inc., priority 2021, dated 2024).

This experiment concerns the target Menin-MLL (Homo sapiens (Human), UniProt O00255). Put plainly: Determination of binding constants (Ki) to Menin-MLL (HTRF). To be noted: HTRF, 0.25 nM H-FL-Menin, 3.2 nM FITC-MLL-4-43, 24 hr incubation; for pKi: read-out: Menin-MLL Ki HTRF Assay: Ki. On the technique in general: Time-resolved FRET reads energy transfer from a long-lived donor to a nearby acceptor.

The structures appear in SMILES notation. pEC50, pKi: −log10 of the molar value. Bounds are passed on as bounds.

What is called pEC50 is the EC50 on a negative log10 scale, so that one unit is a factor of ten. The term pKi denotes the negative decadic logarithm of the Ki, by convention in mol/L.

Chain of Menin-MLL (O00255 whole entry): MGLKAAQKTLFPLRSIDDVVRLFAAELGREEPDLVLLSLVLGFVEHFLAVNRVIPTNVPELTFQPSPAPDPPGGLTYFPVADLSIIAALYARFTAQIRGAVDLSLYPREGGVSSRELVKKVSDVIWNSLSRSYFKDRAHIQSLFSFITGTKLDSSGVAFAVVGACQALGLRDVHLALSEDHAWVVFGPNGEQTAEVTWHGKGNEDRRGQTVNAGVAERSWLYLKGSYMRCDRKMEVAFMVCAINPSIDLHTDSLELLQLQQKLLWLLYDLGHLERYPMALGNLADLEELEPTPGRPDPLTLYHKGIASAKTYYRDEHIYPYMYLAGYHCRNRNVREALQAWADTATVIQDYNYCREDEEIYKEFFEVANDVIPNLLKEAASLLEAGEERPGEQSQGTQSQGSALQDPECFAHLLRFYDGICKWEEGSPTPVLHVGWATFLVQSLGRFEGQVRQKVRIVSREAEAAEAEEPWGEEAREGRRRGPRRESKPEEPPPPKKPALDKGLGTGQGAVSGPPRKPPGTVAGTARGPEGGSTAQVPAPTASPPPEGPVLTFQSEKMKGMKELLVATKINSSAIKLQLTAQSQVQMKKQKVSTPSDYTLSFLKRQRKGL

For the compound `CC(C)N(C(=O)c1cc(F)ccc1Oc1cncnc1N1CC2(CCN(C[C@@H]3CC[C@@H](NS(C)(=O)=O)CO3)CC2)C1)C1CC(F)(F)C1` [Compound 112, N-(3,3-Difluorocyclobutyl)-5-fluoro-N-isopropyl-2-((4-(7-(((2S,5R)-5-(methylsulfonamido)tetrahydro-2H-pyran-2-yl)methyl)-2,7-diazaspiro[3.5]nonan-2-yl)pyrimidin-5-yl)oxy)benzamide], the negative logarithm of the EC50 (pEC50) is more than 7.30 and the negative logarithm of the Ki (pKi) was more than 9.00.

With `CC(C)N(C(=O)c1cc(F)ccc1Oc1cncnc1N1CC2(CCN(C[C@@H]3CC[C@@H](NS(=O)(=O)C4COC4)CO3)CC2)C1)C1CC(F)(F)C1` [Compound 115, N-(3,3-Difluorocyclobutyl)-5-fluoro-N-isopropyl-2-((4-(7-(((2S,5R)-5-(oxetane-3-sulfonamido)tetrahydro-2H-pyran-2-yl)methyl)-2,7-diazaspiro[3.5]nonan-2-yl)pyrimidin-5-yl)oxy)benzamide], the pEC50 is more than 7.30 and the pKi was more than 9.00.

With `CC(C)N(C(=O)c1cc(F)ccc1Oc1cncnc1N1CC2(CCN(C[C@@H]3CC[C@@H](NS(=O)(=O)N4CCOCC4)CO3)CC2)C1)C1CC(F)(F)C1` [Compound 116, N-(3,3-Difluorocyclobutyl)-5-fluoro-N-isopropyl-2-((4-(7-(((2S,5R)-5-(morpholine-4-sulfonamido)tetrahydro-2H-pyran-2-yl)methyl)-2,7-diazaspiro[3.5]nonan-2-yl)pyrimidin-5-yl)oxy)benzamide], the pEC50 is more than 7.30 and the negative-log Ki (pKi) is more than 9.00.

`CC(C)N(C(=O)c1cc(F)ccc1Oc1cncnc1N1CC2(CCN(C[C@@H]3CC[C@@H](NS(N)(=O)=O)CO3)CC2)C1)C1CC(F)(F)C1` [Compound 117, N-(3,3-Difluorocyclobutyl)-5-fluoro-N-isopropyl-2-((4-(7-(((2S,5R)-5-(sulfamoylamino)tetrahydro-2H-pyran-2-yl)methyl)-2,7-diazaspiro[3.5]nonan-2-yl)pyrimidin-5-yl)oxy)benzamide]: the pEC50 was more than 7.30 and the pKi is more than 9.00.

With `C[C@@H]1COC[C@@H](C)N1C(=O)c1cc(F)ccc1Oc1cncnc1N1CC2(CCN(C[C@@H]3CC[C@@H](NS(=O)(=O)N4CCCC4)CO3)CC2)C1` [Compound 124, N-((3R,6S)-6-((2-(5-(2-((3R,5R)-3,5-Dimethylmorpholine-4-carbonyl)-4-fluorophenoxy)pyrimidin-4-yl)-2,7-diazaspiro[3.5]nonan-7-yl)methyl)tetrahydro-2H-pyran-3-yl)pyrrolidine-1-sulfonamide], the pKi was more than 9.00.

Regarding `C[C@@H]1COC[C@@H](C)N1C(=O)c1cc(F)ccc1Oc1cncnc1N1CC2(CCN(C[C@@H]3CC[C@@H](NS(=O)(=O)c4cnn(C)c4)CO3)CC2)C1` [Compound 126], the pKi was more than 9.00.

Turning to `C[C@@H]1COC[C@@H](C)N1C(=O)c1cc(F)ccc1Oc1cncnc1N1CC2(CCN(C[C@@H]3CC[C@@H](NS(=O)(=O)c4ccn(C)n4)CO3)CC2)C1` [Compound 127], the negative-log Ki (pKi) is more than 9.00.

As for `CCN(C)S(=O)(=O)N[C@@H]1CC[C@@H](CN2CCC3(CC2)CN(c2ncncc2Oc2ccc(F)cc2C(=O)N2[C@H](C)COC[C@H]2C)C3)OC1` [Compound 128, {[(3R,6S)-6-{[2-(5-{2-[(3R,5R)-3,5-Dimethylmorpholine-4-carbonyl]-4-fluorophenoxy}pyrimidin-4-yl)-2,7-diazaspiro[3.5]nonan-7-yl]methyl}oxan-3-yl]sulfamoyl}(ethyl)methylamine], the pKi is more than 9.00.

In the case of `C[C@@H]1COC[C@@H](C)N1C(=O)c1cc(F)ccc1Oc1cncnc1N1CC2(CCN(C[C@@H]3CC[C@@H](NS(=O)(=O)N(C)C4CC4)CO3)CC2)C1` [Compound 129, N-{[(3R,6S)-6-{[2-(5-{2-[(3R,5R)-3,5-Dimethylmorpholine-4-carbonyl]-4-fluorophenoxy}pyrimidin-4-yl)-2,7-diazaspiro[3.5]nonan-7-yl]methyl}oxan-3-yl]sulfamoyl}-N-methylcyclopropanamine], the pKi was more than 9.00.

Consider `Cc1nc(S(=O)(=O)N[C@@H]2CC[C@@H](CN3CCC4(CC3)CN(c3ncncc3Oc3ccc(F)cc3C(=O)N3[C@H](C)COC[C@@H]3C)C4)OC2)cs1` [Compound 131, N-((3R,6S)-6-((2-(5-(2-((3S,5R)-3,5-Dimethylmorpholine-4-carbonyl)-4-fluorophenoxy)pyrimidin-4-yl)-2,7-diazaspiro[3.5]nonan-7-yl)methyl)tetrahydro-2H-pyran-3-yl)-2-methylthiazole-4-sulfonamide], for which the pKi was more than 9.00.

`CC(C)N(C(=O)c1cc(F)ccc1Oc1cncnc1N1CC2(CCN(C[C@@H]3CC[C@@H](NS(=O)(=O)C(C)C)CO3)CC2)C1)[C@@H]1CCOC1` [Compound 132, 5-Fluoro-N-i sopropyl-2-((4-(7-(((2S,5R)-5-((1-methylethyl)sulfonamido)tetrahydro-2H-pyran-2-yl)methyl)-2,7-diazaspiro[3.5]nonan-2-yl)pyrimidin-5-yl)oxy)-N-((R)-tetrahydrofuran-3-yl)benzamide]: the pEC50 is more than 7.30 and the pKi was more than 9.00.

Consider `Cc1nc(S(=O)(=O)N[C@@H]2CC[C@@H](CN3CCC4(CC3)CN(c3ncncc3Oc3ccc(F)cc3C(=O)N(C(C)C)[C@@H]3CCOC3)C4)OC2)cs1` [Compound 133, 5-Fluoro-N-isopropyl-2-((4-(7-(((2S,5R)-5-((2-methylthiazole)-4-sulfonamido)tetrahydro-2H-pyran-2-yl)methyl)-2,7-diazaspiro[3.5]nonan-2-yl)pyrimidin-5-yl)oxy)-N-((R)-tetrahydrofuran-3-yl)benzamide], for which the pKi was more than 9.00.

On to `Cc1nc(S(=O)(=O)N[C@@H]2CC[C@@H](CN3CCC4(CC3)CN(c3ncncc3Oc3ccc(F)cc3C(=O)N(C(C)C)[C@H]3CCOC3)C4)OC2)cs1` [Compound 135, 5-Fluoro-N-isopropyl-2-((4-(7-(((2S,5R)-5-((2-methylthiazole)-4-sulfonamido)tetrahydro-2H-pyran-2-yl)methyl)-2,7-diazaspiro[3.5]nonan-2-yl)pyrimidin-5-yl)oxy)-N-((S)-tetrahydrofuran-3-yl)benzamide], for which the pKi is more than 9.00.

As to `CC(C)N(C)C(=O)c1cc(F)ccc1Oc1cncnc1N1CC2(CCN(C[C@@H]3CC[C@@H](NS(=O)(=O)N(C)C)CO3)CC2)C1` [Compound 137, 2-((4-(7-(((2S,5R)-5-((N,N-Dimethylsulfamoyl)amino)tetrahydro-2H-pyran-2-yl)methyl)-2,7-diazaspiro[3.5]nonan-2-yl)pyrimidin-5-yl)oxy)-5-fluoro-N-isopropyl-N-methylbenzamide], the negative-log Ki (pKi) was more than 9.00.

As to `CC(C)N(C)C(=O)c1cc(F)ccc1Oc1cncnc1N1CC2(CCN(C[C@@H]3CC[C@@H](NS(=O)(=O)c4cnn(C)c4)CO3)CC2)C1` [Compound 139, 5-Fluoro-N-isopropyl-N-methyl-2-((4-(7-(((2S,5R)-5-((1-methyl-1H-pyrazole)-4-sulfonamido)tetrahydro-2H-pyran-2-yl)methyl)-2,7-diazaspiro[3.5]nonan-2-yl)pyrimidin-5-yl)oxy)benzamide], the pKi was more than 9.00.

On to `CCN(C(=O)c1cc(F)ccc1Oc1cncnc1N1CC2(CCN(C[C@@H]3CC[C@@H](NS(=O)(=O)N(C)CC)CO3)CC2)C1)C(C)C` [Compound 140, N-Ethyl-2-((4-(7-(((2S,5R)-5-((N-ethyl-N-methylsulfamoyl)amino)tetrahydro-2H-pyran-2-yl)methyl)-2,7-diazaspiro[3.5]nonan-2-yl)pyrimidin-5-yl)oxy)-5-fluoro-N-isopropylbenzamide], for which the pKi was more than 9.00.

In the case of `CC(C)NS(=O)(=O)N[C@@H]1CC[C@@H](CN2CCC3(CC2)CN(c2ncncc2Oc2ccc(F)cc2C(=O)N(CC(F)F)C(C)C)C3)OC1` [Compound 150, N-(2,2-Difluoroethyl)-5-fluoro-N-isopropyl-2-((4-(7-(((2S,5R)-5-((N-isopropylsulfamoyl)amino)tetrahydro-2H-pyran-2-yl)methyl)-2,7-diazaspiro[3.5]nonan-2-yl)pyrimidin-5-yl)oxy)benzamide], the negative-log Ki (pKi) is more than 9.00.

In the case of `CCCNS(=O)(=O)N[C@@H]1CC[C@@H](CN2CCC3(CC2)CN(c2ncncc2Oc2ccc(F)cc2C(=O)N(CC(F)F)C(C)C)C3)OC1` [Compound 151, N-(2,2-Difluoroethyl)-5-fluoro-N-isopropyl-2-((4-(7-(((2S,5R)-5-((N-propylsulfamoyl)amino)tetrahydro-2H-pyran-2-yl)methyl)-2,7-diazaspiro[3.5]nonan-2-yl)pyrimidin-5-yl)oxy)benzamide], the negative logarithm of the Ki (pKi) is more than 9.00.

Regarding `CCS(=O)(=O)N[C@@H]1CC[C@@H](CN2CCC3(CC2)CN(c2ncncc2Oc2ccc(F)cc2C(=O)N(CC(F)(F)F)C(C)C)C3)OC1` [Compound 152, 2-((4-(7-(((2S,5R)-5-(Ethylsulfonamido)tetrahydro-2H-pyran-2-yl)methyl)-2,7-diazaspiro[3.5]nonan-2-yl)pyrimidin-5-yl)oxy)-5-fluoro-N-isopropyl-N-(2,2,2-trifluoroethyl)benzamide], the negative-log EC50 (pEC50) was more than 7.30 and the negative-log Ki (pKi) is more than 9.00.

For `C[C@@H]1COC[C@@H](C)N1C(=O)c1cc(F)ccc1Oc1cncnc1N1CC2(CCN(C[C@@H]3CC[C@@H](NS(=O)(=O)NCC(F)(F)F)CO3)CC2)C1` [Compound 157, {[(3R,6S)-6-{[2-(5-{2-[(3R,5R)-3,5-Dimethylmorpholine-4-carbonyl]-4-fluorophenoxy}pyrimidin-4-yl)-2,7-diazaspiro[3.5]nonan-7-yl]methyl}oxan-3-yl]sulfamoyl}(2,2,2-trifluoroethyl)amine], the pKi is more than 9.00.

As to `C[C@@H]1COC[C@@H](C)N1C(=O)c1cc(F)ccc1Oc1cncnc1N1CC2(CCN(C[C@@H]3CC[C@@H](NS(=O)(=O)NC4CC4)CO3)CC2)C1` [Compound 159, N-[(3R,6S)-6-{[2-(5-{2-[(3R,5R)-3,5-Dimethylmorpholine-4-carbonyl]-4-fluorophenoxy}pyrimidin-4-yl)-2,7-diazaspiro[3.5]nonan-7-yl]methyl}oxan-3-yl](cyclopropylamino)sulfonamide], the negative logarithm of the Ki (pKi) was more than 9.00.
